Assay results as given in patent US7135292B2, “Analysis and modification of gene expression in marine invertebrate cells” (Harbor Branch Oceanographic Institution, Inc., priority 2002, dated 2006).

Test system: Axinella corrugata cell cultures
Assay: Human-sequence microarray (Gene Filters) analysis of gene expression, PHA-treated vs untreated sponge cell cultures
Format: cell-based
Text: Sponge Cells. Cells were obtained from cryopreserved stocks at Harbor Branch Oceanographic Institution. All cells were derived from Axinella corrugata specimens collected in the waters of Florida, the Bahamas, and the Caribbean Sea, and were cryopreserved according to Pomponi et al. (Pomponi et al. 1997b supra). This sponge is relatively common and easy to collect, amenable to culture efforts, and produces the bioactive compound, stevensine, in vitro (Pomponi et al. 1997b supra). Enriched fractions of dissociated sponge cells were prepared, cryopreserved, and thawed according to previously published methods (Pomponi et al. 1997b supra). Cells were incubated at 22–25° C. in a growth medium consisting of a modified and supplemented commercial formulation (Willoughby and Pomponi 2000 supra). The length of the incubation period was based on my unpublished observation of elevated DNA and protein contents (9%, P=0.034, and 9%, P=0.038, respectively) in PHA-treated cultures, according to fluorescent assays of 6 replicate comparisons (Willoughby and Pomponi 2000 supra). Since the effects were observed between 6 and 18 hours after treatment, cells were cultured for 12-hour periods representing the center point of the period of observed changes. Two sets of cultures were incubated with approximately 2×10^8 cells per T-75 flask—a control set and an experimental set treated with 1.5% phytohemagglutinin (PHA) (Life Technologies, M-form).
RNA Isolation. RNA isolation was performed on unrinsed, pelleted cells. Pellets were quickly frozen in a dry ice alcohol bath and stored at −70° C. until RNA isolation. The Qiagen RNeasy® protocol was used, with the following modifications. Samples were disrupted with a micropestle or homogenized by the rotor-stator method, using twice the recommended volume of lysis solution. Prior to column loading, samples were centrifuged through a Qiashredder® column to complete homogenization and remove insoluble material. Supernatant was collected for use in the rest of the protocol. During the first wash step, samples were incubated on the column with DNase 1 (Qiagen or Ambion) for 15 minutes. After the final wash, samples were incubated on the column with the RNase free elution water for 15 minutes prior to elution. Sub-samples were diluted 20× and quantified on a Genequant® spectrophotometer.
cDNA Labeling. Sub-samples of the isolated total RNA (8 μl) were primed with oligo dT (10–20 mer) (Research Genetics, Inc.) for 10 minutes at 70° C., then briefly chilled on ice, followed by addition of 2 volumes of RT cocktail based upon the Life Technologies Superscript II® protocol (containing dATP, dGTP, dTTP, and α-^33P dCTP [NEN Easy Tides®, 3000 Ci/mmol]). The mixture was incubated for 90 minutes at 37° C., and diluted to 100 μl for purification on a Bio-Spin column (Boi-Rad) according to the Gene Filter® (Research Genetics, Inc.) recommended protocol. The resultant labeled probes were then denatured for 3 minutes in a boiling water bath prior to incorporation into the hybridization solution.
Microarrays. Research Genetics Gene Filters®, version 211, were employed in this study. These microarrays feature over 4000 distinct sequence-verified genes spotted onto a 5×7 cm nylon membrane. The DNA at each spot represents approximately 1 kb from the 3′ end of the gene. The microarrays also include spots of total genomic DNA (see FIG. 5). The 211 series is constructed from human sequences. A cross-referenced database listing of all the genes represented on the array is available at http://www.resgen.com. The 2 genes referenced in this work carry the I.M.A.G.E. Consortium (Lennon, G. G., C. Auffray, M. Polymeropoulos and M. B. Soares 1996, Genomics 33:151–152), Clone IDs 81408 (calcineurin B) and 858292 (cdc10).
Hybridization. […]

Q: What does the source list for phytohemagglutinin [PHA]?
A: Ratio, Small inducible cytokine A11 (eotaxin) (No. 56, PHA treated/untreated, 12 h): 0.493; Ratio, Major histocompatibility complex, class II, DR beta 5 (No. 57, PHA treated/untreated, 12 h): 0.255; Ratio, Evi-1 (No. 58, PHA treated/untreated, 12 h): 0.159; Ratio, Homo sapiens thrombospondin 3 (THBS3) gene, complete cds (No. 59, PHA treated/untreated, 12 h): 0.019; Ratio, RhoE (No. 60, PHA treated/untreated, 12 h): 0.312; Ratio, Human bone morphogenetic protein-3b (No. 61, PHA treated/untreated, 12 h): 0.209; Ratio, Vitamin K-dependent gamma-B74carboxylase (No. 62, PHA treated/untreated, 12 h): 2.101; Ratio, Homo sapiens cdc14 homolog mRNA, complete cds (No. 63, PHA treated/untreated, 12 h): 11.905; Ratio, Homo sapiens, alpha-1 (VI) collagen (No. 64, PHA treated/untreated, 12 h): 2.509; Ratio, Homo sapiens BAI 3 mRNA, complete cds (No. 65, PHA treated/untreated, 12 h): 3.228; Ratio, Human TFIIB related factor hBRF (HBRF) mRNA, complete cds (No. 66, PHA treated/untreated, 12 h): 0.118; Ratio, Human capping protein alpha mRNA, partial cds (No. 67, PHA treated/untreated, 12 h): 2.650; Ratio, Human melanocyte-specific gene 1 (msg1) mRNA, complete cds (No. 68, PHA treated/untreated, 12 h): 0.390; Ratio, Ras-like protein TC21 (No. 69, PHA treated/untreated, 12 h): 2.737; Ratio, Homo sapiens mRNA for inositol 1,4,5-trisphosphate 3-kinase isoenzyme, partial cds (No. 70, PHA treated/untreated, 12 h): 0.494; Ratio, Homo sapiens clone 23619 phosphoprotein mRNA, partial cds (No. 71, PHA treated/untreated, 12 h): 0.296; Ratio, Human lysosomal glycosylasparaginase (AGA) gene (No. 72, PHA treated/untreated, 12 h): 0.317; Ratio, COUP transcription factor (No. 73, PHA treated/untreated, 12 h): 0.080; Ratio, Human mRNA for prepro cortistatin like peptide, complete cds (No. 74, PHA treated/untreated, 12 h): 3.616; Ratio, Homo sapiens mRNA for repressor protein, partial cds (No. 75, PHA treated/untreated, 12 h): 0.483; Ratio, N-Terminal acetyltransferase complex ARD1 subunit homolog + B88 (No. 76, PHA treated/untreated, 12 h): 0.275; Ratio, Human alpha-tubulin isotype H2-alpha gene, last exon (No. 77, PHA treated/untreated, 12 h): 0.264; Ratio, Human alpha-cardiac actin gene, 5′ flank and (No. 78, PHA treated/untreated, 12 h): 0.402; Ratio, Homo sapiens MAD-related gene SMAD7 (SMAD7) mRNA, complete cds (No. 79, PHA treated/untreated, 12 h): 3.829; Ratio, Human ETS2 oncogene (No. 80, PHA treated/untreated, 12 h): 2.260; Ratio, Human mRNA for alpha-catenin, complete cds (No. 81, PHA treated/untreated, 12 h): 0.147; Ratio, Human mRNA for TESK1, complete cds (No. 82, PHA treated/untreated, 12 h): 0.282; Ratio, Homo sapiens DnaJ protein (HSPF2) mRNA, complete cds (No. 83, PHA treated/untreated, 12 h): 0.206; Ratio, Keratin, type I cytoskeletal 20 (No. 84, PHA treated/untreated, 12 h): 0.283; Ratio, Homo sapiens FMRFamide-related prepropeptide mRNA, complete cds (No. 85, PHA treated/untreated, 12 h): 2.156; Ratio, H. sapiens mRNA for p40 (No. 86, PHA treated/untreated, 12 h): 7.841; Ratio, Homo sapiens mRNA for p115, complete cds (No. 87, PHA treated/untreated, 12 h): 0.477; Ratio, Factor VIII intron 22 protein (No. 88, PHA treated/untreated, 12 h): 0.490; Ratio, Human RNA polymerase II subunit hsRPB7 mRNA, complete cds (No. 89, PHA treated/untreated, 12 h): 0.441; Ratio, Homo sapiens mRNA for osteomodulin, complete cds (No. 90, PHA treated/untreated, 12 h): 0.354; Ratio, Hemoglobin zeta chain (No. 91, PHA treated/untreated, 12 h): 11.817; Ratio, Human cartilage-specific homeodomain protein Cart-1 mRNA, complete cds (No. 92, PHA treated/untreated, 12 h): 0.201; Ratio, Human cytochrome bc-1 complex core protein II mRNA, complete cds (No. 93, PHA treated/untreated, 12 h): 0.325; Ratio, H. sapiens mRNA for Ndr protein kinase (No. 94, PHA treated/untreated, 12 h): 0.435; Ratio, Human HEM45 mRNA, complete cds (No. 95, PHA treated/untreated, 12 h): 0.114; Ratio, C-1-tetrahydrofolate synthase, cytoplasmic (No. 96, PHA treated/untreated, 12 h): 2.966; Ratio, Homo sapiens mRNA for transducin (beta) like 1 protein (No. 97, PHA treated/untreated, 12 h): 0.091; Ratio, Human Bcl-2 related (Bfl-1) mRNA, complete cds (No. 98, PHA treated/untreated, 12 h): 0.472; Ratio, H. sapiens mRNA for InsP3 5-phosphatase (No. 99, PHA treated/untreated, 12 h): 0.215; Ratio, H. sapiens mRNA for 17-beta-hydroxysteroid dehydrogenase (No. 100, PHA treated/untreated, 12 h): 0.432; Ratio, Ubiquitin carboxyl-terminal hydrolase isozyme L3 (No. 101, PHA treated/untreated, 12 h): 0.388; Ratio, Human putative tRNA synthetase-like protein mRNA, complete cds (No. 102, PHA treated/untreated, 12 h): 0.493; Ratio, Human galectin-4 (GAL4) mRNA, complete cds (No. 103, PHA treated/untreated, 12 h): 0.443; Ratio, Glycylpeptide N-tetradecanoyl transferase (No. 104, PHA treated/untreated, 12 h): 0.354; Ratio, H. sapiens LDLC mRNA (No. 105, PHA treated/untreated, 12 h): 0.395; Ratio, Human CREB-binding protein (CBP) mRNA, complete cds (No. 106, PHA treated/untreated, 12 h): 0.210; Ratio, Human enigma gene, complete cds (No. 107, PHA treated/untreated, 12 h): 0.496; Ratio, Human FEZ2 mRNA, partial cds (No. 108, PHA treated/untreated, 12 h): 0.283; calcineurin down-regulated by the PHA treatment (microarray) (approximately): 2–5 fold; cdc10 up-regulated by the PHA treatment (microarray) (approximately): 2–5 fold
